Test results reported in patent publication US10772875B2, “Agents enhancing HuR/ELAV protein levels for use in the treatment of BRAF-mutated cancers” (LES HOPITAUX UNIVERSITAIRES DE GENEVE, priority 2017, dated 2020).

Columns and labels:
[1] = test system: HuR in A375 cells; assay: Western blot of nuclear and cytoplasmic fractions for HuR expression, A375; type: cell-based, human; conditions: for HuR cytoplasmic content: C1 5 mM or 1 mM for 6 days, C2 15 μM 24 h
Source text: (§1) Some HIV protease inhibitors (such as Nelfinavir) have been used in combination with a BRAF inhibitor to potentiate its effect (Smith et al., 2016, cancer cell, 29(3): 270-284) and some HIV protease inhibitors have (such as Lopinavir) been reported as increasing the cytosolic translocation of HuR (Chen et al., 2009, Biochem Pharmacol., 78(1): 70-77). Further, some polyamine depleting agents i.e. agents reducing the cellular content in polyamines (α-difluoromethylornithine (DFMO), also named Eflornithin) have been reported to modulate cytoplasmic HuR levels (Zou et al., 2006, J. Biol. Chem., 281(28):19387-94). Therefore, a […], Eflornithine (DFMO) and a HIV protease inhibitor, lopinavir ((2S)-N-[(2S,4S,5S)-5-[[2-(2,6-dimethylphenoxy)acetyl]amino]-4-hydroxy-1,6-diphenylhexan-2-yl]-3-methyl-2-(2-oxo-1,3-diazinan-1-yl)butanamide) were tested as comparative examples ((comparative compounds C1 and C2, respectively)) for their ability to increase HuR cytoplasmic localization in melanoma (A375 and the MALME-3M cells (melanoma BRAF mutated sensitive cell lines) cell lines as follows and analysis was conducted by Western blot analysis as described in Example 1 [, except that the cells were treated with comparative compound C1 dissolved in DMSO at 5 mM or at 1 mM for 6 consecutive days, where fresh medium with C1 was added in 6 well plates every day and the cells were split every 3 days or the cells were treated with C2 at 15 μM dissolved in DMSO for 24 h. Cell fractionation was conducted using the NE-PER Nuclear and Cytoplasmic Extraction Reagents (ThermoFisher Scientific) according to the manufacturer's instructions. Nuclear (N) and cytoplasmic (C) fractions were analyzed for HuR expression by western blot as described above. […] As a comparison of successful increase in HuR cytoplasmic content, western blot analysis was performed on cells infected with aG or aH at m.o.i 5, 25 or 125 as described in Example1 (FIG. 8C).
(§2) Western blot analysis was conducted as described in Examples 1 and 5, except that cells were treated with LiCl at 1 mM (for 6 h for A375 and for 24 h for MALME-3M cells) before cell lysis and analysis. […] Considering that HuR is mainly a nuclear protein, the absence of any nuclear contamination in the cytoplasm as observed here fulfils the experimental requirements. The increased cytoplasmic expression of HuR was quantified as being respectively 80% and 50% increased in A375 and Malme 3M melanoma cells using an image quantification software (ImageJ).

[2] = test system: HuR in MALME-3M cells; assay: Western blot of nuclear and cytoplasmic fractions for HuR expression, MALME-3M; type: cell-based, human; conditions: for HuR cytoplasmic content: C1 5 mM or 1 mM for 6 days, C2 15 μM 24 h
Source text: as §1, §2

[3] = test system: HuR in A375 melanoma cells; assay: Whole cell extract western blot on HuR-expressing adenovirus-infected A375 cells; conditions: Li 1 mM and 10 mM
Description: Western blot analysis was performed on cell extracts of A375 cells at 48 h post-infection. Whole cell lysates were prepared using RIPA (radioimmunoprecipitation assay) buffer (PBS (phosphate-buffered saline), 1% NP40 (nonyl phenoxypolyethoxylethanol 40), 0.1% sodium deoxycholate, 0.1% SDS (sodium dodecyl sulphate)) supplemented with fresh protease and phosphatase inhibitors (easy packs tablets, Roche). Cell lysates were quantified for protein content using Bio-Rad DC (detergent compatible) kit. Protein samples were resolved on 12.5% polyacrylamide Bis-Tris gel (Bio-rad) and then transferred to nitrocellulose membrane. After saturation, the membranes were incubated overnight with the anti-HuR mouse monoclonal antibody (Santa-Cruz/3A2-sc-5261, 1:1000) raised against full-length HuR of human origin. The secondary antibody conjugated to horseradish-peroxidase (Bio-Rad goat anti-mouse IgG-HRP, 1:3000) was incubated at room temperature for 30 minutes. Blots were developed using the ECL (enhanced chemiluminescent) system (Thermo-Scientific) according to the manufacturer's instructions.

[4] = test system: A375 cells; assay: WST-1 cell proliferation assay, vemurafenib dose response; type: cell-based; conditions: for proliferation rate increase (paradoxical proliferation): A375 cells, 48 h
Description: The A375 BRAFV600E melanoma cell line was purchased from CLS Cell Lines Service GmbH (Cryovial: 300110). A375 cells were maintained at 37° C. and 5% CO2 in a humidified atmosphere and grown in DMEM (Dulbecco's modified Eagle's medium) growth media supplemented with 10% FBS (fetal bovine serum), 2 mM glutamine, 1% penicillin/streptomycin. Cells were verified to be mycoplasma-free (PanReac Applichem mycoplasma test kit). Cells were treated with the BRAF inhibitor, vemurafenib (Selleckchem), also known as N-[3-[5-(4-chlorophenyl)-1H-pyrrolo[2,3-b]pyridine-3-carbonyl]-2,4-difluorophenyl]propane-1-sulfonamide and dissolved in dimethyl sulphoxide (DMSO, 10 mM storing concentration).
Cell proliferation was measured using WST-1 reagent (Roche applied Science). Melanoma cells were plated (2500 cells per well) in 96-well tissue culture plates. After 24 h, the cells were treated with vemurafenib or DMSO (excipient) at the indicated concentrations in triplicate or quadruplicate. The excipient is used at the same dilution as the one necessary to get the desired concentration of vemurafenib, in that case for example if 1/1000 dilution is necessary to get a 100 nM final concentration of vemurafenib, then the DMSO pure stock solution will be also diluted to 1/1000. For the standard proliferation assays, after the treatment period of 48 h, WST-reagent (20 μl, 10% of the final volume) was added to the wells and incubated at 37° C. for 1 to 2 h depending on the experiment in order to stay within the linear range of the assay. The plates were read at 450(−650) nm on a Vmax kinetic ELISA Microplate Reader (Molecular Devices). Cell proliferation is expressed as percentage of the absorbance compared with the DMSO-treated cells. Proliferation assays for overexpression experiments were scheduled as follows: A375 cells were plated (800000 cells per well) in six-well culture plates. After 24 h, the cells were infected overnight at indicated m.o.i. […]

[5] = test system: BRAF-mutant colorectal patients; conditions: BRAF-mutant colorectal patients (Kopetz et al., 2010); cited from earlier work

NCCC[C@](N)(C(=O)O)C(F)F [C1, α-difluoromethylornithine]
HuR cytoplasmic content [1]: no increase of HuR cytoplasmic content
HuR cytoplasmic content ([2]; MALME-3M cells): no increase of HuR cytoplasmic content

Cc1cccc(C)c1OCC(=O)N[C@@H](Cc1ccccc1)[C@@H](O)C[C@H](Cc1ccccc1)NC(=O)[C@H](C(C)C)N1CCCNC1=O [C2, (2S)-N-[(2S,4S,5S)-5-[[2-(2,6-dimethylphenoxy)acetyl]amino]-4-hydroxy-1,6-diphenylhexan-2-yl]-3-methyl-2-(2-oxo-1,3-diazinan-1-yl)butanamide]
HuR cytoplasmic content [1]: no increase of HuR cytoplasmic content
HuR cytoplasmic content ([2]; MALME-3M cells): no increase of HuR cytoplasmic content

[Cl-].[Li+] [LiCl, Lithium Chloride]
total amount of HuR expression and HuR cytoplasmic content ([1]; LiCl 1 mM): increase of both total amount of HuR expression and HuR cytoplasmic content
increased cytoplasmic expression of HuR (ImageJ quantification) ([1]; LiCl 1 mM, 6 h): 80%
total amount of HuR expression and HuR cytoplasmic content ([2]; MALME-3M cells, LiCl 1 mM): increase of both total amount of HuR expression and HuR cytoplasmic content
increased cytoplasmic expression of HuR (ImageJ quantification) ([2]; Malme 3M cells, LiCl 1 mM, 24 h): 50%
total amount of HuR expression (endogenous and exogenous epitope-tagged HuR) [3]: clearly increases the total amount of HuR expression with a dose effect

CCCS(=O)(=O)Nc1ccc(F)c(C(=O)c2c[nH]c3ncc(-c4ccc(Cl)cc4)cc23)c1F [vemurafenib, N-{3-[5-(4-chlorophenyl)-1H-pyrrolo[2,3-b]pyridine-3-carbonyl]-2,4-difluorophenyl}propane-1-sulfonamide]
proliferation rate increase (paradoxical proliferation) ([4]; 20 nM vemurafenib): up to 50%
proliferation rate increase (paradoxical proliferation) ([4]; 100 nM vemurafenib): up to 25%
vemurafenib-induced paradoxical proliferation ([4]; aH cells (HuR-overexpressing A375), in contrast to aG or non-infected cells): no vemurafenib-induced paradoxical proliferation was observed
patients who respond [5]: ~5%
